In paper PMC12015381, “Target Agnostic Photoaffinity Labelling by Sulfonylhydrazones” (Angewandte Chemie (International Ed. in English), 2025):

How the values were obtained:
[1] = molecular target: T1, STAT5b (Signal transducer and activator of transcription 5b) (Homo sapiens, UniProt P51692); test: covalent photolabelling by tryptic digestion and LC-MS/MS; STAT5b inhibition assay with irradiation (no inhibition under […] without irradiation); type: binding
T1 sequence (P51692 1-787): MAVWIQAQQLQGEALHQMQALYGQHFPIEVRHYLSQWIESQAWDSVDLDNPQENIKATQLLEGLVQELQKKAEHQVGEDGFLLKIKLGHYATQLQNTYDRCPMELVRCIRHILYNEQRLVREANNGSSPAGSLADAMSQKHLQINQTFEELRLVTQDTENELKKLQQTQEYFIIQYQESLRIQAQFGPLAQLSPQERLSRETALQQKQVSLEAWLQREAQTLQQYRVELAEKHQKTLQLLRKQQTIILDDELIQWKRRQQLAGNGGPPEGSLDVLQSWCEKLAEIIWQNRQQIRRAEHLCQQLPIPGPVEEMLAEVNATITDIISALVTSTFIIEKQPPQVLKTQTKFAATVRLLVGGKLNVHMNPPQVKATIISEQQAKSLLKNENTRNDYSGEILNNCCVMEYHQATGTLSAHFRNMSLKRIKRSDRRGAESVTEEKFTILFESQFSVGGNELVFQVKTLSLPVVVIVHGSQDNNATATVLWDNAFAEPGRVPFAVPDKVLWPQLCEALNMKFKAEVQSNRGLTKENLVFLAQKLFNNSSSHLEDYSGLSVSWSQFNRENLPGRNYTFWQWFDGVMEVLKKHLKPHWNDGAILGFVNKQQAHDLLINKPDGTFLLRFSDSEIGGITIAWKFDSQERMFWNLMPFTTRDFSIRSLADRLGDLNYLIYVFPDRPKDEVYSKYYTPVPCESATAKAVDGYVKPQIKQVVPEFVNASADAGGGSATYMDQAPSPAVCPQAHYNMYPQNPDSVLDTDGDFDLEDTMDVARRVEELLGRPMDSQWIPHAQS

[2] = molecular target: acetylcholine esterase (AChE) (Electrophorus electricus, UniProt O42275); test: biochemical enzyme inhibition assay after photoactivation at […] nm (no inhibition without irradiation); covalent labelling by enzymatic digestion and MS
Sequence of acetylcholine esterase (AChE) (O42275 24-633): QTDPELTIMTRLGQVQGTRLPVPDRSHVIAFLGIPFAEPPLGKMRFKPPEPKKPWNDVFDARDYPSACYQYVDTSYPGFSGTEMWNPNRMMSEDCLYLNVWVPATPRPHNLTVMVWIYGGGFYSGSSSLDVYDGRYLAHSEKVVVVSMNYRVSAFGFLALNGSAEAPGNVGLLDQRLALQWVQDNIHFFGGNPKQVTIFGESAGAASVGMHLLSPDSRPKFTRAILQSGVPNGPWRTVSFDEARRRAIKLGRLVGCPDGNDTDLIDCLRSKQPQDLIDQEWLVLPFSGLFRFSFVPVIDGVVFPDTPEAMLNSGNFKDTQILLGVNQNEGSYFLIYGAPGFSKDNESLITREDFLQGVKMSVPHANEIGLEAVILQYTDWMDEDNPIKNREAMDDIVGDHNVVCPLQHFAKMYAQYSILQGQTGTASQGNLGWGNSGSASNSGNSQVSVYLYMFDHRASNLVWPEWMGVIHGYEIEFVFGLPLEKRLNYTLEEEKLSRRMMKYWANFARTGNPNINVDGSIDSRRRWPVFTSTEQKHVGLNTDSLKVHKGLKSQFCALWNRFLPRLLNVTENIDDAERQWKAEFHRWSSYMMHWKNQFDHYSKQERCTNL

IC50 [1] [µM] | SMILES | IC50 [2] [µM]
24.1 | O=c1c(/C=N/NS(=O)(=O)c2cccnc2)coc2ccccc12 [compound 10, 10] | –
– | COc1cc2c(cc1OC)C(=NNS(=O)(=O)c1ccc(C)cc1)C(CC1CCN(Cc3ccccc3)CC1)C2 (centres unmarked) [compound 12, donepezil-tosylhydrazone] | 0.379
